Measurements published in the supplement of paper PMC13380429.

What was measured:
Settings in all cases: 72 h
[1] = system: HepG2; test: relative viability EC50 (midpoint between 100% and the lowest measured viability); higher = less toxic
[2] = system: Caco-2; test: as above
[3] = system: Calu-3; test: as above
[4] = system: Vero E6; test: as above
[5] = system: U2OS; test: as above
[6] = system: HepG2; test: cell viability relative to DMSO; higher = less toxic
[7] = system: Caco-2; test: as above
[8] = system: Calu-3; test: as above
[9] = system: Vero E6; test: as above
[10] = system: U2OS; test: as above
[11] = system: HepG2; test: drug sensitivity score (DSS) for viability; higher = more toxic; extreme values may be limits of the assay
[12] = system: Caco-2; test: as above
[13] = system: Calu-3; test: as above
[14] = system: Vero E6; test: as above
[15] = system: U2OS; test: as above

Compound	relative viability EC50 [1] [µM]	relative viability EC50 [2] [µM]	relative viability EC50 [3] [µM]	relative viability EC50 [4] [µM]	relative viability EC50 [5] [µM]	cell viability ([6]; 1 nM) [%]	cell viability ([6]; 10 nM) [%]	cell viability ([6]; 100 nM) [%]	cell viability ([6]; 1000 nM) [%]	cell viability ([6]; 10000 nM) [%]	cell viability ([7]; 1 nM) [%]	cell viability ([7]; 10 nM) [%]	cell viability ([7]; 100 nM) [%]	cell viability ([7]; 1000 nM) [%]	cell viability ([7]; 10000 nM) [%]	cell viability ([8]; 1 nM) [%]	cell viability ([8]; 10 nM) [%]	cell viability ([8]; 100 nM) [%]	cell viability ([8]; 1000 nM) [%]	cell viability ([8]; 10000 nM) [%]	cell viability ([9]; 1 nM) [%]	cell viability ([9]; 10 nM) [%]	cell viability ([9]; 100 nM) [%]	cell viability ([9]; 1000 nM) [%]	cell viability ([9]; 10000 nM) [%]	cell viability ([10]; 1 nM) [%]	cell viability ([10]; 10 nM) [%]	cell viability ([10]; 100 nM) [%]	cell viability ([10]; 1000 nM) [%]	cell viability ([10]; 10000 nM) [%]	drug sensitivity score [11]	drug sensitivity score [12]	drug sensitivity score [13]	drug sensitivity score [14]	drug sensitivity score [15]
N[C@@H](CSS(=O)(=O)O)C(=O)O [S-sulfo-L-cysteine]	> 10	> 10	> 10	> 10	> 10	108	101	103	94.8	94.5	97.9	105	88.1	100	94.2	97.7	92.6	94.4	95.8	95.2	98.3	96.2	103	97.5	102	94.4	102	95	102	98.4	0	0	0	0	0
Cc1cc2nc3c(=O)[nH]c(=O)nc-3n(C[C@H](O)[C@H](O)[C@H](O)CO)c2cc1C [riboflavin]	> 10	> 10	> 10	> 10	> 10	95.9	85	93.7	93.4	93	99	95.3	92.7	107	96.8	102	104	86	107	92.2	96.6	91.9	96.3	94.2	95.4	97.4	101	96.2	102	94.6	0	0	0	0	0
COCCN1CCC(C(=O)NO)(S(=O)(=O)c2ccc(Oc3ccc(OC(F)(F)F)cc3)cc2)CC1 [SD-2590]	> 10	> 10	> 10	> 10	> 10	95.9	93.8	93.9	89	91.6	97.8	103	95.9	98.8	107	93.9	96.8	96.9	98.8	88.1	97.6	94	98.7	92.2	103	98.2	103	92.2	100	98.8	0	0	0.1	0	0
C[S+]([O-])c1ccc(-c2nc(-c3ccc(F)cc3)c(-c3ccncc3)[nH]2)cc1 (stereo not given)	> 10	> 10	> 10	> 10	> 10	104	105	96.1	107	91.8	111	97	103	95.1	84	106	101	98.2	98.4	101	99	112	97.2	110	92.3	104	102	102	95.5	96.9	0	0.8	0	0	0
O=C(NC1CC1)c1cc(-c2cccs2)on1 [ISX-9]	> 10	> 10	> 10	> 10	> 10	104	95.8	102	103	87.6	98.1	98.3	93.3	101	87.6	93.6	105	104	99.7	84.3	111	96.5	108	99.4	101	97.7	98.4	98.4	102	85.5	0	0.1	0.3	0	0.1
O=C(NC(=O)c1c(F)cccc1Cl)NC1c2ccccc2-c2ccccc21 [TMN-355]	> 10	> 10	> 10	> 10	> 10	97.4	103	101	109	108	93.1	93.7	86.8	92.1	104	88	93.9	108	91.7	97.6	100	91.9	104	98.4	106	97.4	99.9	96.9	94.2	102	0	0	0	0	0
N=C(NCCC[C@H](N)C(=O)O)N[N+](=O)[O-] [NG-nitro-arginine]	> 10	> 10	> 10	> 10	> 10	96.7	101	95.2	101	95.2	92.7	88.8	106	84.2	89.4	93.5	106	91.7	93.7	94.6	104	101	103	101	92.8	104	95.6	101	93.2	97.9	0	0	0	0	0
